Results from article PMC3532304, “Piperidinols That Show Anti-Tubercular Activity as Inhibitors of Arylamine N-Acetyltransferase: An Essential Enzyme for Mycobacterial Survival Inside Macrophages” (PLoS ONE, 2012).
In brackets after ≈: the same amount, converted by molar mass. Several values for one entry are separate records, joined by “and”; a condition that tells them apart may be missing. Equal values may be shown once. Read-outs that look alike come from different tables or passages of the source.

Legend:
M. tuberculosis H37Rv = assay: Mycobacterial growth inhibition in vitro (spot culture on solid medium); type: cell-based; details: for MIC: Mycobacterium tuberculosis, H37RV, 336 h, read-out: MIC M. tuberculosis; for MIC M. tuberculosis: H37Rv, solid 7H10-OADC medium, no growth after 2 weeks
MMNAT [1] = target: T1, MMNAT (Mycobacterium marinum, UniProt B2HIZ6); assay: NAT-inhibition assay (Ac-CoA hydrolysis with hydralazine, Ellman's reagent); type: biochemical, M. marinum; details: for inhibition at 50 µM: read-out: MMNAT % Inhibition; for IC50: mean ± S.D.
Method: (§1) An assay for measuring the formation of CoA was used to determine the activity of the enzyme in the presence of potential inhibitors. All the tested compounds were dissolved in dimethylsulphoxide (DMSO) and all reactions were carried out in the presence of 5% (v/v) DMSO. The enzyme (100–150 ng) was mixed with the inhibitors 1–5 (5 µL at a final concentration of 0–250 µM) and incubated for 15 min at 24°C prior to starting the reaction by adding 15 µL hydralazine and 12 µL Ac-CoA at final concentrations of 150 µM and 120 µM respectively, in a final total volume of 100 µL of 20 mM Tris-HCl pH 8. The assay was performed as an end-point read out measurement by stopping the reaction after 10 min at 24°C using 25 µL Ellman's reagent (5 mM 5,5′-dithiobis-(2-nitrobenzoate) solution in 6.4 M guanidine-HCl and 100 mM Tris-HCl, pH 7.3). The absorbance was measured at a wavelength of 405 nm within 2 min (Tecan Sunrise Plate Reader). The assays were repeated using a 10-fold enzyme concentration to exclude promiscuous non-specific inhibitors. The activity of the enzyme in the presence of 5% (v/v) DMSO was measured as a control. Inhibition values were determined as the ratio of the enzyme activity (expressed as the rate of CoA formation per microgram protein (µM/min.µg)) with the requisite compound, to the activity of the control without inhibitor. IC50 values were determined from the inhibition curves which were obtained by non-linear fitting of the % inhibition and the inhibitor concentration (µM) using the Log(inhibitor) vs. response module of GraphPad Prism 5.0.

MMNAT [2] = target: T1, MMNAT; assay: Time-dependent inhibition assay (Kitz and Wilson model); type: biochemical, M. marinum; details: 24°C
Method: The time course of the inhibition of NAT by the piperidinols was evaluated according to the Kitz and Wilson model. Irreversible inhibition, progressive with time, was measured for the piperidinol inhibitors (1–5) by the protocol described in Figure S2, and the values of the apparent first order constant (kobs) were determined (Table 1). Dilution rather than dialysis was used in this protocol due to the likely loss of activity upon dialysis (Figure 3). […] Examples of the curves obtained for enzyme activity against incubation time upon inhibition of MMNAT and TBNAT by the piperidinols are shown in Figure 4.
For the determination of the time dependence of interaction between enzymes and inhibitors, the inhibitor was diluted to less than 1% concentration. Incubation mixtures (20 µL) contained 0.06 mM MMNAT or TBNAT in 20 mM Tris-HCl, pH 8 and 5% (v/v) DMSO and variable concentrations of the inhibitors (0–50 µM) were prepared using the protocol described in Figure S1. Aliquots of 1 µL were removed from the reaction mixture at different time points (incubation-time) and diluted to 100 µL using the assay buffer containing HLZ and Ac-CoA to the final concentrations of 150 µM and 120 µM, respectively. The rate of Ac-CoA hydrolysis was measured over a three-minute time period. The reaction was stopped with 25 µL Ellman's reagent in 6.4 M guanidine and the absorbance was measured at a wavelength of 405 nm. The residual activity was measured as a percentage of a control prepared as described in Figure S1 and plotted against the incubation-time. The data were fitted using the Semilog line (X is linear, Y is Log) module of GraphPad Prism 5.0. The slope of each line is equivalent to (−kobs/2.303) at each inhibitor concentration.The controls in which no enzyme was present using CoA and Ellman's reagent gave the same results whether compound 1 was present or not.

MMNAT [3] = target: T1, MMNAT; assay: ESI-MS analysis of covalent enzyme-inhibitor adducts; type: binding, M. marinum; details: enzyme-to-inhibitor ratio 1∶1; for Δm of enzyme-inhibitor adduct (MMNAT): 24°C, 30–60 min; for Molar ratio (inhibitor/protein) (MMNAT): proposed number of inhibition species bound per protein molecule
Method: ESI-MS was performed as described previously. A sample of 2.5 mg/mL (80 µM) MMNAT was analyzed on a Micromass LCT mass spectrometer. The samples were pretreated with DMSO or 0.08–1.2 mM inhibitor dissolved in DMSO to a final percentage of 5% (v/v) DMSO and incubated for 30–60 min before analysis. ESI-MS analysis was performed in positive ion mode after denaturation in 50% v/v acetonitrile in water with an accuracy of ±0.1%. The sample was run over a desalting column prior to MS analysis.

TBNAT [4] = target: T2, TBNAT (Mycobacterium tuberculosis, UniProt P9WJI5); assay: NAT-inhibition assay (Ac-CoA hydrolysis with hydralazine, Ellman's reagent); type: biochemical, M. tuberculosis; details: for IC50: mean ± S.D.; for inhibition at 50 µM: read-out: TBNAT % Inhibition
T2 construct: made in house
Method: as §1

M. bovis BCG = assay: microbe, parasite or virus in culture; type: cell-based; details: for MIC: Mycobacterium tuberculosis variant bovis BCG, BCG, 336 h, read-out: MIC M. bovis BCG; for MIC M. bovis BCG: solid 7H10-OADC medium, no growth after 2 weeks
MMNAT [5] = target: T1, MMNAT; assay: Reversibility of inhibition by dialysis; type: biochemical, M. marinum; details: 15-fold molar excess, 1 h at 24°C, dialysis 16 h at 4°C
Method: (§2) Figure 3 Reversibility of the inhibition of TBNAT and MMNAT by compound 1. Each enzyme (MMNAT, TBNAT, 0.07 mM, 50 µL) was preincubated either alone or with 15-fold molar excess 1 at 24°C for 1 h. Each sample was then dialysed against 1 L fresh assay buffer (20 mM Tris-HCl pH 8) at 4°C for 16 h. The enzyme activities of the samples were measured before dialysis and then measured after dialysis by measuring the rate of Ac-CoA hydrolysis in the presence of HLZ as described in Methods. The mean ± S.D. of three measurements of the activity is shown. Loss of enzyme activity upon dialysis is likely to be due to the oxidation of the active site sulfhydryl group, especially since dialysis was performed in the absence of dithiothreitol.
(§3) For the reversibility studies, excess inhibitor was […] by dialysis. Each enzyme (0.07 mM MMNAT or TBNAT in 20 mM Tris-HCl pH 8 and 5% (v/v) DMSO) was preincubated either alone or with 15-fold molar excess of compound 1 in a final volume of 50 µL at 24°C for 1 h. Each sample was then dialysed against 1 L fresh assay buffer (20 mM Tris-HCl pH 8) at 4°C for 16 h. The enzyme activities of the samples were measured before dialysis and then measured after dialysis by measuring the rate of Ac-CoA (120 µM) hydrolysis in the presence of 150 µM HLZ.

M. tuberculosis = test system: M. tuberculosis; design: method as in PMID 13402115; details: cited from earlier work
TBNAT [6] = target: T2, TBNAT; assay: Reversibility of inhibition by dialysis; type: biochemical, M. tuberculosis; details: 15-fold molar excess, 1 h at 24°C, dialysis 16 h at 4°C
Method: as §2, §3

human NAT1 = target: T3, human NAT1 (Homo sapiens, UniProt P18440); assay: Specificity panel of recombinant NAT enzymes (Ac-CoA hydrolysis with 5ASA); type: biochemical; details: 30 µM
T3 construct: made in house
T3 sequence (P18440 1-290): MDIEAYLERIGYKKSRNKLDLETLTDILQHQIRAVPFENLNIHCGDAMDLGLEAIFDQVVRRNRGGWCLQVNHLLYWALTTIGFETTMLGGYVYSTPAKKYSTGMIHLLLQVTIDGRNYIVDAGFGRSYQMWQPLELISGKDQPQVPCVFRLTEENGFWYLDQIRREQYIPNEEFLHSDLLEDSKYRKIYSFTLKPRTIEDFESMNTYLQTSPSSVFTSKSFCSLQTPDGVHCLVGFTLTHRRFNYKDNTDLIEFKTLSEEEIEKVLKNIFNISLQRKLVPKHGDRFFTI
Method: (§4) Figure 2 Specificity of compound 1 for prokaryotic NAT enzymes. Compound 1 was tested at 30 µM against pure recombinant NAT enzymes from M. smegmatis (MSNAT), P. aeruginosa (PANAT), S. typhimurium (STNAT), MMNAT and TBNAT, and also against two eukaryotic enzymes, hamster NAT2 (shNAT2) and human NAT1. The results are shown as the mean ± S.D. of triplicate determinations of the percentage inhibition of hydrolysis of Ac-CoA in the presence of 5-aminosalicylic acid (5ASA) and against TBNAT using hydralazine as a substrate. The inhibition is represented as a percentage compared to an uninhibited control from triplicate measurements. The structure of compound 1 is shown and the piperidinol nucleus is highlighted by the shaded area.

hamster NAT2 (shNAT2) = target: T4, hamster NAT2 (shNAT2) (Mesocricetus auratus, UniProt P50293); assay: as above; type: biochemical; details: 30 µM
T4 construct: made in house
T4 sequence (P50293 1-290): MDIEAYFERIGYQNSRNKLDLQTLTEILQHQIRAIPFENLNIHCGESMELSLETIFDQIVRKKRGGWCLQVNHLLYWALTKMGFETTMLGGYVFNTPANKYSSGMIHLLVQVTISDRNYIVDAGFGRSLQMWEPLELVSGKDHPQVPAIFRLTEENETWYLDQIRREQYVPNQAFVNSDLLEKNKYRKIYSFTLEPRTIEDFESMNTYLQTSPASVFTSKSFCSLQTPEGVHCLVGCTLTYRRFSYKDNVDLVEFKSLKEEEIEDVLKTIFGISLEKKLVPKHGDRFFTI
Method: as §4

TBNAT [7] = target: T2, TBNAT; assay: ESI-MS analysis of covalent enzyme-inhibitor adducts; type: binding, M. tuberculosis
[8] = design: method as in PMID 16032973; details: cited from earlier work
NAT = assay: Inhibition of NAT activity by PVK; type: biochemical; details: within 10 minutes, at less than 1 µM
[9] = 150 µM HLZ, 120 µM Ac-CoA, 24°C
[10] = 50 µM inhibitor, 150 µM HLZ, 120 µM Ac-CoA, 24°C, mean ± S.D. of triplicate

T2 sequence (P9WJI5 whole entry): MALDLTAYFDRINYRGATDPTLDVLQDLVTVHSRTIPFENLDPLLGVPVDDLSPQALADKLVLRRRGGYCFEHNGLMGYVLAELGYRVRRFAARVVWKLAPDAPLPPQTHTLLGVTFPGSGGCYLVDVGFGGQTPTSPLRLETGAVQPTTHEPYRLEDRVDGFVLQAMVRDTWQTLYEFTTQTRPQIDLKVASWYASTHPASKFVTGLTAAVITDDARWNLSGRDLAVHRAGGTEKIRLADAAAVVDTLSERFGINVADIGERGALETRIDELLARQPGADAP
T1 sequence (B2HIZ6 entry or part of it): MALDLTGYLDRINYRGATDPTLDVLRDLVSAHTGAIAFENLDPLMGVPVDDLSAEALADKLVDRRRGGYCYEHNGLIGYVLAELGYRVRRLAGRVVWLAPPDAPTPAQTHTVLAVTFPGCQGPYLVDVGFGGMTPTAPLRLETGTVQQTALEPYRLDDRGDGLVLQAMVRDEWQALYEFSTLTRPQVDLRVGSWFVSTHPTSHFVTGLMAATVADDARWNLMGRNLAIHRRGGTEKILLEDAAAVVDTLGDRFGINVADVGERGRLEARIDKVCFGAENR

SMILES	MIC (M. tuberculosis H37Rv) [µM]	Δm of enzyme-inhibitor adduct (MMNAT) (MMNAT [3])	Molar ratio (inhibitor/protein) (MMNAT) (MMNAT [3])	IC50 (TBNAT [4]; [9]) [nM]	MIC (M. bovis BCG) [µM]	MIC M. tuberculosis (M. tuberculosis H37Rv) [µM]	MMNAT % Inhibition (MMNAT [1]; [10]) [%]	IC50 (MMNAT [1]; [9]) [nM]	MMNAT kobs (MMNAT [2]; inhibitor at 11.9 µM)	TBNAT % Inhibition (TBNAT [4]; [10]) [%]	MIC M. bovis BCG (M. bovis BCG) [µM]	inhibition at 50 µM (MMNAT [1]; [10]) [%]	inhibition at 50 µM (TBNAT [4]; [10]) [%]	also measured
O=C(c1ccccc1)C1CN(C2CCCCC2)CCC1(O)c1ccccc1 (centres unmarked) [compound 3]	2.8 to 13.8 (≈ 1.02 to 5.02 µg/mL)	132 Da and 131.5 Da	1	4400 ± 100	17.3 to 34.4 (≈ 6.29 to 12.5 µg/mL)									inhibition at 50 µM (MMNAT [1]): 103 ± 1%; MMNAT kobs (MMNAT [2]; inhibitor at 5.9 µM): 573±18 10^−3 min^−1; inhibition at 50 µM (TBNAT [4]): 72 ± 60%
CN1CCC(O)(c2ccc(Cl)cc2)C(C(=O)c2ccc(Cl)cc2)C1 (centres unmarked) [compound 2]		164 Da and 164.3 Da	1	1600 ± 100		2.7 to 13.7	103±2	160 ± 10	110±2 10^−3 min^−1	98±1	17.3 to 34.3			
CN1CCC(O)(c2ccccc2)C(C(=O)c2ccccc2)C1 (centres unmarked) [compound 1, (4-hydroxy-1-methyl-4-phenylpiperidin-3-yl)(phenyl)methanone]	3.4 to 16.9 (≈ 1 to 4.99 µg/mL)	132 Da and 132.6 Da	1	7700 ± 900	21.3 to 42.3 (≈ 6.29 to 12.5 µg/mL)			1300	9±2 10^−3 min^−1			105 ± 1	101 ± 1	restoration of enzyme activity by dialysis (MMNAT) (MMNAT [5]): completely ineffective in restoring the activity; minimum inhibitory concentration (MIC) against M. tuberculosis (M. tuberculosis; conversion of the µg/mL value): ~17 µM (≈ 5.02 µg/mL); minimum inhibitory concentration (MIC) against M. tuberculosis (M. tuberculosis; reported over 50 years ago): less than 5 µg/mL; restoration of enzyme activity by dialysis (TBNAT) (TBNAT [6]): completely ineffective in restoring the activity; inhibition of eukaryotic NAT (human NAT1) (human NAT1): did not show significant inhibition; inhibition of eukaryotic NAT (hamster NAT2) (hamster NAT2 (shNAT2)): did not show significant inhibition; Molar ratio (inhibitor/protein) (TBNAT) (TBNAT [7]; enzyme-to-inhibitor ratio 1∶15, proposed number of inhibition species bound per protein molecule): 1 and 2
CN(CCC(=O)c1ccccc1)CCC(=O)c1ccccc1 [compound 5]		132 Da and 129.7 Da	1	1200 ± 100		3.4 to 16.9	101±2	140 ± 20	34±2 10^−3 min^−1	101±2	21.3 to 42.3			toxicity compared to the cyclic piperidinol [8]: greater toxicity
C=CC(=O)c1ccccc1 [PVK, phenyl vinyl ketone, reference compound]		132 Da	1											mass difference of enzyme adduct (TBNAT) (TBNAT [7]; ratio not stated): 132; inhibition of the NAT activity (NAT): 100%
CC1(C)CC(N2CCC(O)(c3ccccc3)C(C(=O)c3ccccc3)C2)CC(C)(C)N1 (centres unmarked) [compound 4]	2.3 to 11.7 (≈ 0.967 to 4.92 µg/mL)	132 Da and 130.5 Da	1	1100 ± 300	14.8 to 29.3 (≈ 6.22 to 12.3 µg/mL)			2700 ± 400	586±115 10^−3 min^−1			100 ± 2	67 ± 4	
